This note sets out measurements from US20210040073A1, “AZABICYCLO-SUBSTITUTED TRIAZOLE DERIVATIVE, PREPARATION METHOD THEREOF, AND APPLICATION OF SAME IN MEDICINE” (Jiangsu Hengrui Medicine Co., Ltd., priority 2016, published 2021).

For one data set, the target named is T1, human V1bR (Homo sapiens, UniProt P47901).
T1 construct: expressed in transfected cells; host or cells: HEK293 (G418-selected pool)
T1 sequence (P47901 1-424): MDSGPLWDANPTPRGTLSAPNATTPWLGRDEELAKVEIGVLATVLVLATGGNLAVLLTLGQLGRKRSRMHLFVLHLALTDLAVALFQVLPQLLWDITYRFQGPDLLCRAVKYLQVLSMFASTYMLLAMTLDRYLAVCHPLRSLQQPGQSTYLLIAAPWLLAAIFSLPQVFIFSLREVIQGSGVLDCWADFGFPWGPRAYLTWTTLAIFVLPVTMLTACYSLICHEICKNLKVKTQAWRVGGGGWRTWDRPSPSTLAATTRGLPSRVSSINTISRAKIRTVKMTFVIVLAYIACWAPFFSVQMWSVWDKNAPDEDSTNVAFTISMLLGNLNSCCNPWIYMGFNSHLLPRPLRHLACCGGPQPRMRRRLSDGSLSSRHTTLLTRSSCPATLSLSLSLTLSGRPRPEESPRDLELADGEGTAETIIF
Description: Inhibition activity on human V1bR (Fluo-4 calcium assay, HEK293/human V1bR pool cells, vasopressin 3 nM). Type of data set: cell-based. The settings on record: calcium signal. The method, then:
The inhibition effect of the compounds of the present invention on the activity of human V1bR protein expressed in HEK293/human V1bR cells was determined by the following experimental method:
The pcDNA3.1-V1bR plasmid was transferred into HEK293 cells with the Lipofectamine® 3000 transfection reagent; G418 was added on the next day, and the HEK293/human V1bR pool cell lines were obtained.
HEK293/human V1bR pool cells were inoculated in a 96-well plate with an inoculation density of 25,000 cells/well one day in advance. On the next day, a loading buffer containing Fluo-4 dye was formulated using the reagents in the Fluo-4 NW calcium assay kit, and the culture medium was then removed; 100 μl of the loading buffer containing Fluo-4 dye were added to each well, and the plate was incubated at 37° C. for 30 minutes. After that, the plate was moved to room temperature and equilibrated for 10 minutes. The compounds were formulated into concentration gradients of 10^6, 10^5, 10^4, 10^3, 10^2 and 10^1 nM. 1 μl of the compounds in each concentration was added to each well, and the plate was incubated at room temperature for 10 minutes. […] IC50 values of the compounds were calculated by Graphpad prism software using fluorescence signals corresponding to different concentrations.

Data set [1] in a line: Pharmacokinetics assay in rats after intragastrical administration. As to conditions: 2 mg/kg; for AUC / CL/F / MRT / Vd/F: plasma.
Description: Rats were used as test animals. […] The pharmacokinetic behavior of the compounds of the present invention was studied and evaluated in rats.
After an overnight fast, SD rats were administered intragastrically the test compounds at an administration dosage of 2.0 mg/kg and an administration volume of 10.0 mL/kg.
0.2 mL of blood was taken from the orbital sinus before administration and at 0.5, 1.0, 2.0, 4.0, 6.0, 8.0, 11.0 and 24.0 hours after administration. The samples were stored in heparinized tubes, and centrifuged for 10 minutes at 4° C. at 3,500 rpm to separate the blood plasma. The plasma samples were stored at −20° C. The rats were fed 2 hours after administration.
The content of the test compounds in the plasma of rats after intragastrical administration of the test compounds at different concentrations was determined: 25 μL of rat plasma at each time after administration was taken, added with 50 μL of the internal standard solution of camptothecin (100 ng/mL) and 200 μL of acetonitrile, vortex-mixed for 5 minutes, and centrifuged for 10 minutes (4000 rpm). 1.0 μL of the supernatant was taken from the plasma samples for LC/MS/MS analysis.
The mark [2] stands for this setting: both, Sprague-Dawley, rat, in vivo, po.

Structures are written as SMILES.

Turning to `COc1ccc(-n2c(COCCF)nnc2N2C[C@@H]3C[C@]3(c3ccc(F)cc3Cl)C2)cn1` [Example 1, (1S,5R)-1-(2-Chloro-4-fluorophenyl)-3-(5-((2-fluoroethoxy)methyl)-4-(6-methoxypyridin-3-yl)-4H-1,2,4-triazol-3-yl)-3-azabicyclo[3.1.0]hexane], the IC50 on human V1bR came out at 24.5 µM.
The same measure, in the same setting: then `COCc1nnc(N2C[C@@H]3C[C@]3(c3cccc(F)c3Cl)C2)n1-c1ccc(OC)nc1` [Example 4, (1S,5R)-1-(2-Chloro-3-fluorophenyl)-3-(5-(methoxymethyl)-4-(6-methoxypyridin-3-yl)-4H-1,2,4-triazol-3-yl)-3-azabicyclo[3.1.0]hexane], with 59.4 µM.
For the compound `CCOCc1nnc(N2C[C@@H]3C[C@]3(c3ccc(F)cc3Cl)C2)n1-c1ccc(OC)nc1` [Example 6, (1S,5R)-1-(2-Chloro-4-fluorophenyl)-3-(5-(ethoxymethyl)-4-(6-methoxypyridin-3-yl)-4H-1,2,4-triazol-3-yl)-3-azabicyclo[3.1.0]hexane], at human V1bR, the IC50 was found to be 27.9 µM. In data set [1] (SD rats, intragastrical), the “Plasma concentration Cmax” value was 0.135 ± 0.08 µg/mL. This compound also gave a half-life in data set [1] (setting [2]) of 3.47 ± 1.72 h. In data set [1] (both, Sprague-Dawley, rat, po), this compound had an AUC of 1.06 ± 0.982 µg·h/mL, a CL/F of 4.13 ± 3.53 L/h/kg, an MRT of 6.7 ± 0.73 h and a Vd/F of 18 ± 17.4 L/kg.
On to `COCc1nnc(N2C[C@@H]3C[C@]3(c3ccc(F)cc3Cl)C2)n1-c1ccc(OC)nc1` [Example 9, (1S,5R)-1-(2-Chloro-4-fluorophenyl)-3-(5-(methoxymethyl)-4-(6-methoxypyridin-3-yl)-4H-1,2,4-triazol-3-yl)-3-azabicyclo[3.1.0]hexane], for which the IC50 on human V1bR is 37.6 µM. Further, in data set [1] (SD rats, intragastrical), the “Half-life T½” value stood at 3.98 ± 3.55 h. The same compound returned a Cmax in data set [1] (setting [2]) of 0.35 ± 0.142 µg/mL. Further, in data set [1] (both, Sprague-Dawley, rat, po), the AUC worked out at 2.04 ± 1.02 µg·h/mL, the apparent clearance CL/F is 1.21 ± 0.618 L/h/kg, the MRT turned out to be 6.23 ± 4.94 h and the Vd/F worked out at 6 ± 4.44 L/kg.
On to `COc1ccc(-n2c(N3C[C@@H]4C[C@]4(c4ccc(F)cc4Cl)C3)nnc2C(F)(F)F)cn1` [Example 12, (1S,5R)-1-(2-Chloro-4-fluorophenyl)-3-(4-(6-methoxypyridin-3-yl)-5-(trifluoromethyl)-4H-1,2,4-triazol-3-yl)-3-azabicyclo[3.1.0]hexane], for which, on human V1bR, the IC50 was 11.7 µM.

By IC50 is commonly meant the concentration at which inhibition is half-maximal. By half-life is commonly meant the time needed for the level to fall by half in the phase considered. Usually AUC stands for concentration integrated over time. The term CL/F denotes the apparent clearance, not corrected for the fraction that reaches the circulation. Broadly, the MRT is the average time that molecules of a dose stay in the body. Broadly, the Vd/F is the apparent distribution volume after extravascular dosing. The Cmax is the maximum level reached in the sampled fluid or tissue.
